Here are results for 28 molecules from patent US5589483A, “Isoquinoline poly (ADP-ribose) polymerase inhibitors to treat skin diseases associated with cellular senescence” (priority 1994, dated 1996).

In assay [1] the target is Poly (ADP-Ribose) Polymerase (PADPRP). Conditions: cited from earlier work; for pIC50: PADPRP Inhibitors, Table 1.
The test system of assay [2] is human fibroblast cells (W138 cells). Briefly: Extension of lifespan and proliferative capacity of human fibroblast cells in culture (cumulative population doublings). It counts as cell-based. From the text: At the time of subdivision, the media was aspirated, and the cells were rinsed with phosphate buffered saline (PBS) and then trypsinized. […] This process was repeated every ~7 days until the cells appeared to stop dividing.

The test system of the next assay is human fibroblasts. Conditions: Rattan and Clark, 1994; cited from earlier work.

As a reminder, the pIC50 is the IC50 on a negative log10 scale, so that one unit is a factor of ten.

Each structure is given as a SMILES string. pIC50: −log10 of the molar value. Where only a bound is given, the exact number is not on record here.

`O=c1[nH]ncc2ccccc12` [1(2H)-Phthalazinone]: the negative-log IC50 (pIC50) in assay [1] was 4.92.

Consider `Oc1cccc2c(O)nccc12` [1,5-Dihydroxyisoquinoline], for which the “proliferative lifespan (maximum achievable cumulative population doublings)” value in assay [2] (100 μM (DMSO concentration 0.1%), W138 cells, FIG. 2) is “extension of their proliferative lifespan”. Also, the “proliferative capacity of treated cells” value in assay [2] (same procedure, FIG. 2, concentration not given) is on record as “increased proliferative capacity”. Turning to `O=c1[nH][nH]c(=O)c2ccccc12` [2,3-Dihydro-1,4-phthalazinedione], the negative logarithm of the IC50 (pIC50) in assay [1] was 4.52.

As to `NC(=O)c1ccccc1O` [2-Hydroxybenzamide], the negative logarithm of the IC50 (pIC50) in assay [1] is 4.09. For the molecule `O=c1[nH]c(S)nc2ccccc12` [2-Mercapto-4(3H)-quinazolinone], in assay [1], the pIC50 was 4.36.

`COc1ccccc1C(N)=O` [2-Methoxybenzamide]: in assay [1], the pIC50 was 4.70.

As to `Cc1cc(=O)c2ccccc2o1` [2-Methyl-1,4-benzopyrone], in assay [1], the pIC50 is 4.35. As to `O=c1[nH]c2ccc([N+](=O)[O-])cc2c2ccccc12` [2-Nitro-6(5H)-phenanthridinone], in assay [1], the pIC50 is 6.46. Turning to `O=c1[nH]c2ccccc2c2ccccc12` [2H-Benz[c]isoquinolin-1-one], the pIC50 in assay [1] was 6.52. For the molecule `CC(=O)Nc1cccc(C(N)=O)c1` [3-Acetamidobenzamide], the pIC50 in assay [1] is 4.92.

Regarding `NC(=O)c1cccc(N)c1` [3-Aminobenzamide], the “lifespan of treated cells versus control cells” value in assay [2] (10 μM 3-AB, FIG. 1) is reported as “no effect”; in assay [2] (100 μM 3-AB, FIG. 1), “longer lifespan than control cells”. Also, the “lifespan and proliferative capacity of treated cells” value in assay [2] (1 mM 3-AB, FIG. 1) was “dramatic increase in lifespan and proliferative capacity”. Besides, in assay [2] (1 mM 3-AB, W138 cells, FIG. 1), the “maximum achievable cumulative population doublings” value is “significant increase”. Also, the “days in culture at which cells were still dividing” value in assay [2] (1 mM 3-AB, control cells stopped dividing after about 40 days) was over 60 days.

`Nc1cccc2c(=O)[nH][nH]c(=O)c12` [3-Aminophthalhydrazide]: in assay [1], the negative-log IC50 (pIC50) is 4.64.

On to `NC(=O)c1cccc(F)c1` [3-Fluorobenzamide], for which, in assay [1], the negative-log IC50 (pIC50) is 4.70. Regarding `NC(=O)c1cccc(O)c1` [3-Hydroxybenzamide], the negative-log IC50 (pIC50) in assay [1] was 5.04. For the molecule `Cc1cccc(C(N)=O)c1` [3-Methylbenzamide], the pIC50 in assay [1] is 4.72.

For the molecule `O=c1[nH][nH]c(=O)c2c([N+](=O)[O-])cccc12` [3-Nitrophthalhydrazide], the negative logarithm of the IC50 (pIC50) in assay [1] was 4.14.

`Cc1cc(O)c2ccccc2n1` [4-Hydroxy-2-methylquinoline]: the pIC50 in assay [1] is 4.13. Consider `Oc1ccnc2ccccc12` [4-Hydroxyquinoline], for which the pIC50 in assay [1] was 4.10. Regarding `CC(=O)Nc1ccc(O)c(C(N)=O)c1` [5-Acetamidosalicylamide], the pIC50 in assay [1] was 4.35.

For the molecule `O=c1[nH]cc(I)c(=O)[nH]1` [5-Iodouracil], the negative logarithm of the IC50 (pIC50) in assay [1] is 4.15. For the molecule `O=c1[nH]c(=O)n([C@@H]2O[C@H](CO)[C@@H](O)[C@H]2O)cc1I` [5-Iodouridine], in assay [1], the pIC50 is 4.37. With `CCCCC/C=C\C/C=C\C/C=C\C/C=C\CCCC(=O)O` [Arachidonic acid], the pIC50 in assay [1] is 4.36.

`NC(=O)c1ccccc1` [Benzamide]: in assay [1], the pIC50 was 4.66. `CCCCC/C=C\C/C=C\CCCCCCCC(=O)O` [Linoleic acid]: in assay [1], the negative-log IC50 (pIC50) is 4.32. Turning to `NC(=O)c1cccnc1` [Nicotinamide], the negative logarithm of the IC50 (pIC50) in assay [1] was 3.68.

For the molecule `CCCCCCCC/C=C\CCCCCCCC(=O)O` [Oleic acid], the negative logarithm of the IC50 (pIC50) in assay [1] is 4.09.

`c1coc(CNc2ncnc3[nH]cnc23)c1` [kinetin]: the “PADPRP inhibition (in words)” value in assay [1] (Althaus and Richter, 1987) is recorded as “weak inhibitor”. Moreover, in the assay with human fibroblasts, the “cell culture lifespan in terms of maximum proliferative capacity in vitro” value is given as “not accompanied by an increase in cell culture lifespan” and the “onset of aging characteristics” value was “delay the onset of aging characteristics”. Turning to `NC(=O)c1cccc(C(N)=O)c1` [m-Phthalamide], the negative-log IC50 (pIC50) in assay [1] was 4.30.
